Test results taken from the supplement of paper PMC10307832.

Key:
Experiment in all cases: relative viability (nuclei count vs DMSO), 5 days (fraction); higher = more cells survive
IU1-47 + Navitoclax = compound: CC1=CC(=C(N1C2=CC=C(C=C2)Cl)C)C(=O)CN3CCCCC3 [IU1-47] + CC1(C)CCC(c2ccc(Cl)cc2)=C(CN2CCN(c3ccc(C(=O)NS(=O)(=O)c4ccc(N[C@H](CCN5CCOCC5)CSc5ccccc5)c(S(=O)(=O)C(F)(F)F)c4)cc3)CC2)C1 [Navitoclax] (partner 0.5 µM)
How it was run: (§1)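 One day after seeding in 1536-well plates, lung cancer cell lines were dosed by pin tool. Dosing was either single-drug or a fixed anchor-drug dose plus five library-drug doses (not always all listed) in √10 steps. After 5 days, nuclei were stained in one fix-and-stain step and counted on 4× images, and relative viability is the nuclei count of treated wells over that of vehicle wells, given as the median of duplicate plates.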

IU1-47 + Phenformin = compound: CC1=CC(=C(N1C2=CC=C(C=C2)Cl)C)C(=O)CN3CCCCC3 [IU1-47] + N=C(N)NC(=N)NCCc1ccccc1 [Phenformin] (partner 250 µM)
How it was run: as §1

FG-4592 + Luminespib = compound: Cc1nc(C(=O)NCC(=O)O)c(O)c2ccc(Oc3ccccc3)cc12 [FG-4592] + CCNC(=O)c1noc(-c2cc(C(C)C)c(O)cc2O)c1-c1ccc(CN2CCOCC2)cc1 [Luminespib] (partner 0.01 µM)
How it was run: as §1

FG-4592 + Alpelisib = compound: Cc1nc(C(=O)NCC(=O)O)c(O)c2ccc(Oc3ccccc3)cc12 [FG-4592] + Cc1nc(NC(=O)N2CCC[C@H]2C(N)=O)sc1-c1ccnc(C(C)(C)C(F)(F)F)c1 [Alpelisib] (partner 2 µM)
How it was run: as §1

| Cell Line | relative viability (IU1-47 + Navitoclax; first compound 0.08 µM) | relative viability (IU1-47 + Navitoclax; first compound 0.253 µM) | relative viability (IU1-47 + Navitoclax; first compound 0.8 µM) | relative viability (IU1-47 + Navitoclax; first compound 2.53 µM) | relative viability (IU1-47 + Navitoclax; first compound 8 µM) | relative viability (IU1-47 + Phenformin; first compound 0.08 µM) | relative viability (IU1-47 + Phenformin; first compound 0.253 µM) | relative viability (IU1-47 + Phenformin; first compound 0.8 µM) | relative viability (IU1-47 + Phenformin; first compound 2.53 µM) | relative viability (IU1-47 + Phenformin; first compound 8 µM) | relative viability (FG-4592 + Luminespib; first compound 0.08 µM) | relative viability (FG-4592 + Luminespib; first compound 0.253 µM) | relative viability (FG-4592 + Luminespib; first compound 0.8 µM) | relative viability (FG-4592 + Luminespib; first compound 2.53 µM) | relative viability (FG-4592 + Luminespib; first compound 8 µM) | relative viability (FG-4592 + Alpelisib; first compound 0.08 µM) | relative viability (FG-4592 + Alpelisib; first compound 0.253 µM) | relative viability (FG-4592 + Alpelisib; first compound 0.8 µM) | relative viability (FG-4592 + Alpelisib; first compound 2.53 µM) | relative viability (FG-4592 + Alpelisib; first compound 8 µM) |
| --- | --- | --- | --- | --- | --- | --- | --- | --- | --- | --- | --- | --- | --- | --- | --- | --- | --- | --- | --- | --- |
| LXF-289 | 0.993 | 1 | 0.985 | 0.92 | 0.975 | 0.533 | 0.563 | 0.541 | 0.517 | 0.439 | 0.65 | 0.675 | 0.712 | 0.596 | 0.711 | 0.974 | 0.963 | 1.06 | 1.05 | 1.09 |
| NCI-H23 | 0.791 | 0.903 | 0.987 | 0.925 | 0.716 | 0.757 | 0.884 | 0.904 | 0.678 | 0.828 | 0.208 | 0.247 | 0.179 | 0.203 | 0.184 | 0.663 | 0.678 | 0.772 | 0.679 | 0.673 |
| NCI-H322M | 1.31 | 1.21 | 1.1 | 1.27 | 1.23 | 0.825 | 0.768 | 0.789 | 0.809 | 0.633 | 0.82 | 0.841 | 0.666 | 0.818 | 0.623 | 0.194 | 0.797 | 0.595 | 0.941 | 0.852 |
| NCI-H441 | 0.574 | 0.497 | 0.655 | 0.684 | 0.548 | 0.994 | 0.978 | 0.787 | 0.887 | 0.787 | 0.314 | 0.307 | 0.307 | 0.443 | 0.287 | 0.849 | 0.704 | 0.853 | 0.878 | 0.519 |
| NCI-H460 | 1.3 | 1.08 | 1.36 | 1.02 | 1.38 | 0.599 | 0.536 | 0.614 | 0.532 | 0.313 | 0.0351 | 0.0212 | 0.0354 | 0.0343 | 0.0187 | 0.549 | 0.46 | 0.571 | 0.517 | 0.444 |
| NCI-H520 | 1.22 | 1.12 | 1.26 | 1.02 | 0.981 | 0.602 | 0.484 | 0.59 | 0.626 | 0.346 | 0.22 | 0.209 |  | 0.204 | 0.201 | 0.908 | 0.972 | 0.952 | 0.93 | 0.74 |
| NCI-H596 | 1.05 | 0.961 | 0.982 | 0.869 | 1.05 | 0.786 | 0.61 | 0.78 | 0.709 | 0.677 | 1.14 | 1.08 | 0.886 | 1.15 | 0.676 | 0.418 | 0.482 |  | 0.499 | 0.527 |
| NCI-H647 | 1.31 | 1.3 | 1.19 | 1.26 | 1.04 | 0.449 | 0.597 |  | 0.553 | 0.238 | 0.183 | 0.181 | 0.174 | 0.201 | 0.109 | 1.24 | 1.07 | 1.17 | 1.24 | 0.796 |
| NCI-H727 | 0.454 |  | 0.597 | 0.413 | 0.391 | 0.675 | 0.712 | 0.56 | 0.63 | 0.387 | 0.341 | 0.237 | 0.335 | 1.02 | 0.326 | 0.533 | 0.582 | 0.545 | 0.56 | 0.561 |
| NCI-H838 | 1.25 | 1.21 | 1.32 | 1.27 | 1.15 | 0.559 | 0.578 | 0.549 | 0.562 | 0.318 | 0.324 | 0.179 | 0.263 | 0.386 | 0.272 | 0.877 | 0.933 | 0.98 | 1.01 | 0.816 |
| NCI-H1355 | 0.946 | 0.943 | 0.977 | 0.898 | 0.848 | 0.432 | 0.501 | 0.441 |  | 0.398 | 0.808 | 0.67 | 0.465 | 0.681 | 0.676 | 0.797 | 0.788 |  | 0.869 | 0.743 |
| NCI-H1395 | 1.03 | 1.07 | 1.14 |  | 1.15 | 0.408 | 0.456 | 0.472 | 0.436 | 0.374 | 0.34 | 0.685 | 0.583 | 0.61 | 0.753 | 0.973 | 0.914 |  | 0.896 | 0.693 |
| NCI-H1437 | 1.15 | 1.08 | 1.1 | 0.982 | 0.955 | 0.337 | 0.272 | 0.25 | 0.341 | 0.297 | 1.21 | 1.11 | 1.27 | 0.984 | 0.95 | 0.997 | 0.958 | 1.01 | 1.05 | 0.706 |
| NCI-H1651 | 1.25 | 1.13 | 1.16 |  | 1.12 | 0.342 | 0.308 | 0.373 | 0.319 | 0.297 | 0.9 | 0.767 | 0.789 | 0.836 | 0.867 | 0.925 | 0.888 | 1.03 | 0.95 | 0.816 |
| NCI-H1666 | 1.1 | 1.04 | 0.89 | 0.912 | 0.824 | 0.609 | 0.527 | 0.539 | 0.584 | 0.544 | 0.966 | 0.965 | 0.96 | 1 | 0.95 | 0.866 | 0.862 | 0.953 | 0.886 | 0.644 |
| NCI-H1734 | 0.943 | 0.873 | 0.823 |  | 0.734 | 0.441 | 0.423 | 0.369 |  | 0.376 | 0.183 | 0.185 | 0.177 | 0.192 | 0.178 | 0.645 | 0.685 | 0.681 | 0.686 | 0.731 |
